Experimental data taken from patent publication US20230158049A1, “COMPOSITIONS AND METHODS FOR TREATING VIRUSES” (University of Virginia Patent Foundation, priority 2020, published 2023).

Experiments:
[1] = system: SARS-CoV-2
[2] = biological target: 3C-like main protease (3CLpro) or Nsp5 (Severe acute respiratory syndrome coronavirus 2, UniProt P0DTD1); conditions: computational screening (Wu et al.); cited from earlier work
[3] = four patients, 100 mg twice daily or daily

Compound	clinical course on azithromycin before the switch to doxycycline ([1]; Example 4 (case 4): hospital days 1-3, with ceftriaxone)	retesting for SARS-CoV-2 ([1]; Example 2: after 3 weeks)	clinical course (fever, symptoms) ([1]; Example 2: person, pulmonary sarcoidosis, doxycycline 100 mg orally twice a day for 10 days)	repeat nasopharyngeal swab testing for SARS-CoV-2 RNA ([1]; Example 3: on 9 May 2020)	lung infiltrates on chest X-ray ([1]; Example 4: after 14 days of doxycycline therapy)	CRP ([1]; Example 4: by day 8 (CRP 13 by day 3, before doxycycline))	supplemental oxygen requirement ([1]; Example 4: person, doxycycline 100 mg twice daily from hospital day 4, by day 8)	overall clinical outcome of the four patients [1, 3]	progression to severe disease [1, 3]	safety issues with use ([1]; four patients, standard doses for 5 to 14 days)	3CLpro binding by computational screening [2]
CC[C@H]1OC(=O)[C@H](C)[C@@H](O[C@H]2C[C@@](C)(OC)[C@@H](O)[C@H](C)O2)[C@H](C)[C@@H](O[C@@H]2O[C@H](C)C[C@H](N(C)C)[C@H]2O)[C@](C)(O)C[C@@H](C)CN(C)[C@H](C)[C@@H](O)[C@]1(C)O [azithromycin]	several days of worsening										
C[C@H]1c2cccc(O)c2C(=O)C2=C(O)[C@]3(O)C(=O)C(C(N)=O)=C(O)[C@@H](N(C)C)[C@@H]3[C@@H](O)[C@@H]21 [doxycycline]		negative	Fever resolved and they remained asymptomatic	negative	resolved	1.0	no longer required oxygen	All improved	None progressed to severe disease	No safety issues were noted	can bind to 3CLpro
